Patent publication US8101212B2, “Bioactive botanical cosmetic compositions and processes for their production” (Akzo Nobel Surface Chemistry LLC, priority 2002, dated 2012)
pIC50: −log10 of the molar value. In brackets after ≈: the same amount, converted by molar mass.

How the values were obtained:
[1] = Superoxide scavenging activity (xanthine oxidase system, cytochrome c reduction); assay type: biochemical
From the text: Reactive oxygen species generated by activated inflammatory cells (endogenous or exogenous) create specific oxidant which was used to provide the measurements of superoxide scavenging activity. The assay used for evaluation of superoxide scavenging activity relates to the one form of antioxidant activity, which is of benefit in neutralizing the damage associated with oxidation. To generate superoxide anions in high yield and in a controlled fashion, an enzymatic system (xanthine oxidase) was used. The conversion of […] by this enzyme generates amounts of superoxide anions, which are stoichiometric with the amount of substrate provided. The assay used was based on the reduction of cytochrome c from its ferric to ferrous form as a sensitive measure of superoxide levels. […] Method 7: Method for Determination of Superoxide Scavenging Activity. The enzymatic system, which uses xanthine oxidase (a purified enzyme preparation produced by “Sigma”), was used to generate superoxide anions in high yield and in a controlled fashion. The conversion of xanthine to hydroxanthine by this enzyme generates amounts of superoxide anions and reduction of ferricytochrome c to ferrocytochrome c was used as a sensitive measure of superoxide levels. […]

gelatinase B (MMP-9) = biological target: T1, gelatinase B (MMP-9) (Homo sapiens, UniProt P14780); experiment: Gelatinase B inhibitory activity (MMP-9 Activity ELISA); assay type: biochemical
T1 construct: purchased Amersham Pharmacia
T1 sequence (P14780 94-707): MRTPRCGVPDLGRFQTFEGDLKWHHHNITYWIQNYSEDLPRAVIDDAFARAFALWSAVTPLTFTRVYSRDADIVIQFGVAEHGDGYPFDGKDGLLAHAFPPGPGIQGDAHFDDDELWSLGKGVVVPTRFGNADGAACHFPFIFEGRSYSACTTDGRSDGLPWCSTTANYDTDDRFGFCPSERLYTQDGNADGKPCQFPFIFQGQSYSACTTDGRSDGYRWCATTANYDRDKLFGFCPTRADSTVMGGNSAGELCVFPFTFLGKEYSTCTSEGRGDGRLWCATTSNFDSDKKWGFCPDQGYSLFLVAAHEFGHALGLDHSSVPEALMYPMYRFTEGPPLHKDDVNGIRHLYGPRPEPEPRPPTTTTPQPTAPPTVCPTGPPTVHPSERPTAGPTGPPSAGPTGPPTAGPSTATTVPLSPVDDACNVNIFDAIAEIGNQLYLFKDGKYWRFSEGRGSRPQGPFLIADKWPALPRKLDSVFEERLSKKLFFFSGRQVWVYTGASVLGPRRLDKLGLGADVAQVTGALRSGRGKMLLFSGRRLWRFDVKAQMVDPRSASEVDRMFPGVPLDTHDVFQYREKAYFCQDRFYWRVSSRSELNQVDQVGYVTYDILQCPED
From the text: Neutrophils contain two major enzymes from the class of matrix metalloproteinases, which collectively are implicated in extensive connective tissue destruction: neutrophil collagenase (MMP-8) and gelatinase B (MMP-9). Because elastase has poor activity against native collagen, and neutrophil collagenase alone cannot solubilize the connective tissue protein by itself, gelatinase B is considered as a major contributor to inflammatory injury to the extracellular matrix. A specific assay for this enzyme was used to evaluate the potential of cosmetic botanical ingredients to inhibit degradation of the extracellular matrix mediated by inflammatory cell-derived matrix metalloproteinases. Gelatinase B activity was detected by hydrolysis of a low molecular weight synthetic substrate (APMA). Inhibitors of gelatinase B diminish the accelerating rate of enzyme reaction product formation in a dose-dependent fashion. Such enzyme inhibition was found when tested cosmetic ingredients were added to the reaction mixture. Method 6: Method for Determination of Gelatinase B Inhibitory Activity. […] The enzymatic activity was detected at 405 nm by hydrolysis of a low molecular weight synthetic substrate for Gelatinase B: APMA. […]

3T3 fibroblasts = experiment: Neutral red uptake (NRU) cytotoxicity test; assay type: cell-based; parameters: key to Cell Morphology: NCM: Normal Cell Morphology; MLT: Moderate Level of Toxicity
From the text: As an example, a test involving neutral red uptake (NRU) by 3T3 fibroblasts, which is commonly used for determination of cytotoxicity, was utilized to assess cytotoxicity of cosmetic botanical ingredients. The NRU value is proportional to the number of viable cells in this in vitro test population.

| IC50 (superoxide scavenging activity) ([1]; Tables 35 and 36) [µg/mL] | pIC50 (gelatinase B (MMP-9)) | inhibition at 100 µg/mL (gelatinase B (MMP-9); read-out: % Inhibition [100 μg/ml]) [%] | Compound | ICR50 ([1]; Table 29) [μg Dry Matter/mL] | NRU50 of positive control (3T3 fibroblasts) | Cell Morphology (3T3 fibroblasts; Table 27) | Cell Morphology (3T3 fibroblasts; Table 28, marigold flower products) | NRU50 (3T3 fibroblasts; Tables 27 and 28) |
| --- | --- | --- | --- | --- | --- | --- | --- | --- |
| 26.5 (≈ 73.5 µM) | 4.08 | 91 | O=C(/C=C/c1ccc(O)c(O)c1)O[C@H](Cc1ccc(O)c(O)c1)C(=O)O [Rosmarinic Acid, rosmarinic acid] | 26.5 | – | – | – | – |
| – | – | – | EGF: Epidermal Growth Factor (EGF) used as a positive control | – | > 2,500 μg/ml | NCM | NCM | >2,500 μg Dry Matter/mL |
